Source: ChEMBL document CHEMBL1144916, “Identification of N,N-disubstituted phenylalanines as a novel class of inhibitors of hepatitis C NS5B polymerase” (J Med Chem, 2003)
pIC50: −log10 of the molar value.

Molecular target: RNA-directed RNA polymerase (Hepacivirus hominis, UniProt O39930)
Assay: Inhibitory activity against Hepatitis C RNA dependent RNA polymerase Nonstructural protein 5B (NS5B polymerase) expressed from baculovirus-infected Sf9 insect cells

Chain of RNA-directed RNA polymerase (O39930 whole entry): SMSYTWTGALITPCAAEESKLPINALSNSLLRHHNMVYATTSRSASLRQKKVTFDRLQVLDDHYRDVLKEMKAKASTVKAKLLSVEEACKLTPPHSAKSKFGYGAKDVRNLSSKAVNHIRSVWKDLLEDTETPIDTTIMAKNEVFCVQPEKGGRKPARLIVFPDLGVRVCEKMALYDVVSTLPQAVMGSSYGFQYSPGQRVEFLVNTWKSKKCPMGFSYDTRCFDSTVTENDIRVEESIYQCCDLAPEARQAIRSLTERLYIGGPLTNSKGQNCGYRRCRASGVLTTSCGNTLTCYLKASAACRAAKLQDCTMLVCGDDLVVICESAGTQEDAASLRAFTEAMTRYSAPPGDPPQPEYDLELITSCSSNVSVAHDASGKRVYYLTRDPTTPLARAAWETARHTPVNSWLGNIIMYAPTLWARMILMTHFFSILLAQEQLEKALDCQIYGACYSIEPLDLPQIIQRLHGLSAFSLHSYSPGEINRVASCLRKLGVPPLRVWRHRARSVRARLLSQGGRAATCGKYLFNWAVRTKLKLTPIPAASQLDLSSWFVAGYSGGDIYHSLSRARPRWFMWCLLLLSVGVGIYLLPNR

pIC50	Compound
5.10	O=C(O)[C@H](Cc1ccccc1)N(Cc1ccccc1Br)C(=O)c1ccc(Cl)cc1Cl
5.46	O=C(O)[C@H](Cc1ccccc1)N(Cc1cccc(Br)c1)C(=O)c1ccc(Cl)cc1Cl
6.15	O=C(O)[C@H](Cc1ccccc1)N(Cc1cccc([N+](=O)[O-])c1)C(=O)c1ccc(Cl)cc1Cl
5.51	O=C(O)[C@H](Cc1ccccc1)N(Cc1ccc(Br)s1)C(=O)c1ccc(Cl)cc1Cl
6.21	COc1ccc(-c2ccc(Cl)cc2)c(COc2ccc(-c3nc4cc(C(=O)O)ccc4n3C3CCCCC3)cc2)c1
5.10	O=C(O)[C@H](Cc1ccccc1)N(Cc1ccccc1)C(=O)c1ccc(Cl)cc1Cl
5.57	O=C(O)[C@H](Cc1ccccc1)N(Cc1ccc[n+]([O-])c1)C(=O)c1ccc(Cl)cc1Cl
5.74	Cc1cccc(CN(C(=O)c2ccc(Cl)cc2Cl)[C@@H](Cc2ccccc2)C(=O)O)c1
5.49	O=C(O)[C@H](Cc1ccccc1)N(Cc1cccc(F)c1)C(=O)c1ccc(Cl)cc1Cl
6.10	N#Cc1cccc(CN(C(=O)c2ccc(Cl)cc2Cl)[C@@H](Cc2ccccc2)C(=O)O)c1
4.96	O=C(O)[C@H](Cc1ccccc1)N(Cc1cccc(Br)c1)C(=O)c1ccc(Cl)cc1
4.28	O=C(O)CN(Cc1cccc(Br)c1)C(=O)c1ccc(Cl)cc1Cl
5.07	O=C(O)[C@@H](Cc1ccccc1)N(Cc1cccc(Br)c1)C(=O)c1ccc(Cl)cc1Cl
5.07	O=C(O)[C@H](Cc1ccccc1)N(Cc1ccc(-c2cc3ccccc3o2)s1)C(=O)c1ccc(Cl)cc1Cl
5.04	O=C(O)[C@H](Cc1ccccc1)N(Cc1ccc(Br)cc1)C(=O)c1ccc(Cl)cc1Cl
4.82	O=C(O)[C@H](Cc1ccccc1)N(Cc1cccc(Br)c1)C(=O)c1ccccc1Cl
5.22	N#Cc1ccccc1CN(C(=O)c1ccc(Cl)cc1Cl)[C@@H](Cc1ccccc1)C(=O)O
5.10	N#Cc1ccc(CN(C(=O)c2ccc(Cl)cc2Cl)[C@@H](Cc2ccccc2)C(=O)O)cc1
4.96	O=C(O)[C@H](Cc1ccccc1)N(Cc1cccnc1)C(=O)c1ccc(Cl)cc1Cl
5.24	O=C(O)[C@H](Cc1ccccc1)N(Cc1ccc(-c2nccs2)cc1)C(=O)c1ccc(Cl)cc1Cl
5.85	O=C(O)[C@H](Cc1ccccc1)N(Cc1cccc(Cl)c1)C(=O)c1ccc(Cl)cc1Cl

Compound	pIC50
O=C(O)[C@H](Cc1ccccc1)N(Cc1cccc(C(F)(F)F)c1)C(=O)c1ccc(Cl)cc1Cl	5.77
